# Legend:
# [1] = biological target: T1, Macrophage metalloelastase (Homo sapiens, UniProt P39900); assay: Time dependent inhibition of human recombinant MMP12 by progress curve enzyme inhibition assay; conditions: read-out: Ki(app)
# Target sequence in this assay (P39900 whole entry): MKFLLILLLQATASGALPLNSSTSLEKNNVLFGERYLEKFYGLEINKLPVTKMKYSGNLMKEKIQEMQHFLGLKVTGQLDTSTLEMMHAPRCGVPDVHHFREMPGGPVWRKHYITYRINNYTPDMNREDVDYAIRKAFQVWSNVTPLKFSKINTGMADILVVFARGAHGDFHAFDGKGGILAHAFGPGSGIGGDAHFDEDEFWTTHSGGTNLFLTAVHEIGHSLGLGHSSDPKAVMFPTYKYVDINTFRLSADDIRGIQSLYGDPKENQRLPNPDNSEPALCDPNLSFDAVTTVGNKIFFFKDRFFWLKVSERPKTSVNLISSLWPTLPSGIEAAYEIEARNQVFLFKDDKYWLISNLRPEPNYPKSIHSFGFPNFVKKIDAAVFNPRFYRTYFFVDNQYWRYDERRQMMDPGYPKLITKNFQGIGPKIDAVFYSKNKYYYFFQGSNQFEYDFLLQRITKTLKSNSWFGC
# [2] = biological target: T1, Macrophage metalloelastase; assay: Inhibition of human recombinant MMP12 using Mca-Pro-Leu-Gly-Leu-Dpa-Ala-Arg-NH2 as substrate incubated for 10 mins prior to substrate addition by spectrophotometry; conditions: read-out: Ki(app)
# Target sequence in this assay (P39900 whole entry): as above
# [3] = biological target: T1, Macrophage metalloelastase; assay: Inhibition of human recombinant MMP12 by SPR assay
# Target sequence in this assay (P39900 106-470 limits assumed): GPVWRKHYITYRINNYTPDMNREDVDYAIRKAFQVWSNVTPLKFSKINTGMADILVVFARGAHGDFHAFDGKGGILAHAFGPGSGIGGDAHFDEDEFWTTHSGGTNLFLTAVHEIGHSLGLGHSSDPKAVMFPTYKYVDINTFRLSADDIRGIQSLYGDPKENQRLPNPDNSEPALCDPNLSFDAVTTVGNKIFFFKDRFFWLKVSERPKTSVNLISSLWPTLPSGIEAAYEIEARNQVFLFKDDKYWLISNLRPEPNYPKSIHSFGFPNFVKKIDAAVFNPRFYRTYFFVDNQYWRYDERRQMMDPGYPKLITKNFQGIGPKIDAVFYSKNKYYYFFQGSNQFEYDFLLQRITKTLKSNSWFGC
Structure (SMILES),Ki [1] [nM],Ki [2] [nM],inhibition [3]
COc1ccc(S(=O)(=O)N2CC(C)(C)CN(S(=O)(=O)c3ccc(OC)cc3)C2C(=O)NO)cc1,0.61,1.9,–
CNC(=O)[C@H](Cc1ccccc1)NC(=O)[C@H](CCc1ccc(-c2cccnc2)cc1)CC(=O)NO,–,1,–
CNC(=O)[C@H](Cc1c[nH]c2ccccc12)NC(=O)[C@@H](CC(=O)NO)CC(C)C [ILOMASTAT],0.52,3.8,Dose-dependent effect
CNC(=O)[C@H](Cc1ccccc1)NC(=O)[C@H](CCc1ccc(-c2cccnc2)cc1)CC(=O)O,–,48,Dose-dependent effect
CCN(CC)Cc1cc(C)c(N(Cc2ccccc2)S(=O)(=O)c2ccc(OC)cc2)cc1C(=O)NO,3.53,30,–

# Source: ChEMBL document CHEMBL3132774, “The advantage of biosensor analysis over enzyme inhibition studies for slow dissociating inhibitors characterization of hydroxamate-based matrix metalloproteinase-12 inhibitors” (Medchemcomm, 2013)
